Measured values taken from patent US20230340419A1, “METHODS FOR GENERATION OF MOUSE AND HUMAN URETERIC BUD ORGANOIDS AND COLLECTING DUCT ORGANOIDS” (University of Southern California, priority 2020, published 2023).

How the values were obtained:
Type in all cases: cell-based, mouse
Wnt11-RFP UB organoid [1] = assay: Stage III 1st round screening of growth factors and small molecules for UB organoid culture condition; settings: for Wnt11-RFP / Organoid growth: reagent added to FGF9 + C3 + TTNPB + GDNF, compared to that control group; for Effect when used individually: individual versus combinatorial use of JAKI and SB202190
Excerpt: We employed this Wnt11-RFP reporter system as a readout to screen for a culture condition that maintained the progenitor identity of UPCs in vitro. T-shaped UBs were manually isolated from E11.5 kidneys of Wnt11-RFP mice, and immediately embedded into Matrigel to set up a 3D culture platform that supported epithelial branching. In this 3D culture format, built on previous efforts towards the ex vivo culture of UB, hundreds of different combinations of growth factors and small molecules were tested (see also the Materials and Techniques section below for details under subheading “Screening for optimal UB culture condition”).
We systematically screened the optimal UB culture condition in four different stages (Stages I-IV).
In Stage III, based on the optimized recipe consisting of FGF9, TTNPB, CHIR99021 (3 μM) and GDNF, we preformed our 1st round of screening of growth factors and small molecules targeting major developmental pathways (e.g. TGF-β, BMP, Wnt, FGF, Hedgehog and Notch) and others. The branching morphogenesis, growth rate and Wnt11-RFP were recorded as readouts (Table 1). […] Representative images were taken at least for LDN193189, A83-01, and R-Spondin 1. These individual hits were then subjected to a 2nd round of screening to test their effects in various combinations, eventually leading to the identification of the optimal UB progenitor culture medium UBCM consisting of FGF9, TTNPB, CHIR99021 (3 μM), GDNF, LDN193189, A83-01, R-Spondin1, JAKI and SB202190.

UB organoids = assay: 2nd round of CD differentiation condition screening (qRT-PCR of Aqp2 and Foxi1); settings: for Foxi1 expression / Aqp2 expression: qRT-PCR, 7 days, under hBI+FGF9+Y27632 condition
Method: The functions of the mature renal CD system are carried out by two major cell populations that are intermingled throughout the entire CD network. The more abundant principal cells (PCs) concentrate the urine and regulate Na^+/K^+ homeostasis via water and Na^+/K^+ transporters. The less abundant α- and β-intercalated cells (ICs) regulate normal acid-base homeostasis via secretion of H^+ or HCO3^− into the urine. The absence of an in vitro system recapitulating PC and IC development in an appropriate 3D context, constrains physiological exploration, disease modeling and drug screening on the renal CD system. With this limitation in mind, we developed a screen to establish conditions supporting the differentiation of CD organoids, assaying expression of Aqp2 and Foxi1, definitive markers for PC and IC lineages, respectively, by quantitative reverse transcription PCR (qRT-PCR), following 7 days of culture under variable but defined culture conditions (FIG. 2A).
Agonists or antagonists targeting major developmental pathways (e.g. TGF-β, BMP, Wnt, FGF, Hedgehog and Notch) were tested, together with hormonal inputs known to regulate PC or IC activity (aldosterone and vasopressin).

Wnt11-RFP UB organoid [2] = assay: Withdrawal of individual components from UBCM (Stage IV validation); settings: component withdrawn from UBCM
Excerpt: To determine whether UBCM culture conditions enabled clonal growth from a single UPC, dissociated E11.5 UBs were embedded at clonal density in Matrigel and cultured in UBCM medium. Around 30% of the single cells self-organized into E11.5 UB-like budding structures within 5 days, though a smaller percentage (3-5%) maintained Wnt11-RFP (FIG. 1G), an efficiency similar to clonal organoid formation for Lgr5^+ intestinal stem cells. Importantly, the clonally-derived Wnt11-RFP^+ budding structures were identical to intact E11.5 UB-derived organoids in both branching morphology and growth rate (Table 3, FIG. 1H).
Lastly, in Stage IV, we asked whether each of the components in UBCM was essential.

Wnt11-RFP UB = assay: Stage II optimisation of individual UB medium components; settings: titrated at 1, 3 and 6 μM
Excerpt: In Stage II, we optimized the individual medium components employed by Yuri et al. (FGF1, RA, CHIR99021, and GDNF). We first asked if each individual factor was necessary in the medium. […] Then we further optimized these factors. RA is known to be unstable in tissue culture, so we replaced it with another widely used small molecule RA substitute TTNPB. CHIR99021 was used at 1p M by Yuri et al., but based on our own experiences and literature, different doses of CHIR99021 often have different biological effects. So we titrated it from 1p M, 3p M, to 6 μM, from which we identified 3 μM to be the optimal concentration. […] GDNF was unchanged in the medium, considering its essential role in maintaining the UB progenitor population in vitro and in vivo.

Cc1cccc(-c2nn(C(=S)Nc3ccccc3)cc2-c2ccnc3ccccc23)n1 [A83-01]
Wnt11-RFP (Wnt11-RFP UB organoid [1]): Better

NC(=O)c1ncn([C@@H]2O[C@H](CO)[C@@H](O)[C@H]2O)c1N [AICAR]
Wnt11-RFP (Wnt11-RFP UB organoid [1]): Slighty Better

C[C@]12CCC(=O)C=C1CC[C@@H]1[C@@H]2[C@@H](O)C[C@]2(C=O)[C@@H](C(=O)CO)CC[C@@H]12 [Aldosterone]
Foxi1 expression (UB organoids): preferential increase

Cc1c[nH]c(-c2cnc(NCCNc3ccc(C#N)cn3)nc2-c2ccc(Cl)cc2Cl)n1 [CHIR99021]
Effect of withdrawal of the component from UBCM on organoid growth (Wnt11-RFP UB organoid [2]): growth arrest | Optimal concentration (Wnt11-RFP UB): 3 µM

C[C@H](NC(=O)Cc1cc(F)cc(F)c1)C(=O)N[C@H](C(=O)OC(C)(C)C)c1ccccc1 [DAPT]
Wnt11-RFP (Wnt11-RFP UB organoid [1]): Better | Aqp2 expression (UB organoids): dramatically increased | Foxi1 expression (UB organoids): dramatically increased

CC(C)(C)c1nc2c3cc[nH]c(=O)c3c3cc(F)ccc3c2[nH]1 [JAKI]
Effect when used individually (Wnt11-RFP UB organoid [1]): only marginal effects | Wnt11-RFP (Wnt11-RFP UB organoid [1]): Slightly Better | Aqp2 expression (UB organoids): dramatically increased | Foxi1 expression (UB organoids): dramatically increased

c1ccc2c(-c3cnn4cc(-c5ccc(N6CCNCC6)cc5)cnc34)ccnc2c1 [LDN193189]
Wnt11-RFP (Wnt11-RFP UB organoid [1]): Better

CN(C)C(=N)NC(=N)N [Melformin]
Wnt11-RFP (Wnt11-RFP UB organoid [1]): Slightly Better

O=C(NOC[C@H](O)CO)c1ccc(F)c(F)c1Nc1ccc(I)cc1F [PD0325901]
Organoid growth (Wnt11-RFP UB organoid [1]): No growth | Wnt11-RFP (Wnt11-RFP UB organoid [1]): Dead at D 6 | Aqp2 expression (UB organoids): dramatically increased | Foxi1 expression (UB organoids): dramatically increased

Oc1ccc(-c2nc(-c3ccncc3)c(-c3ccc(F)cc3)[nH]2)cc1 [S6202190]
Effect when used individually (Wnt11-RFP UB organoid [1]): only marginal effects | Wnt11-RFP (Wnt11-RFP UB organoid [1]): Slightly Better

NC(=O)CC[C@@H]1NC(=O)[C@H](Cc2ccccc2)NC(=O)[C@H](Cc2ccc(O)cc2)NC(=O)[C@@H](N)CSSC[C@@H](C(=O)N2CCC[C@H]2C(=O)N[C@@H](CCCN=C(N)N)C(=O)NCC(N)=O)NC(=O)[C@H](CC(N)=O)NC1=O [Vasopressin]
Aqp2 expression (UB organoids): enhanced

CN1C(=O)c2sccc2N(C)c2nc(Nc3ccc(S(N)(=O)=O)cc3)ncc21 [XMU-MP-1]
Organoid growth (Wnt11-RFP UB organoid [1]): No growth

Activin A: growth factor tested in screening
Organoid growth (Wnt11-RFP UB organoid [1]): Slower | Wnt11-RFP (Wnt11-RFP UB organoid [1]): Worse | Note (UB organoids): Dramatic

EGF: epidermal growth factor (NSDSECPLSHDGYCLHDGVCMYIEALDKYACNCVVGYIGERCQYRDLKWWELR; Epidermal growth factor; UniProt P01133 971-1023, looked up)
Wnt11-RFP (Wnt11-RFP UB organoid [1]): Better

FGF2: member of the FGF family
Wnt11-RFP (Wnt11-RFP UB organoid [1]): Worse

FGF20: member of the FGF family
Wnt11-RFP (Wnt11-RFP UB organoid [1]): Worse

Heparin
Wnt11-RFP (Wnt11-RFP UB organoid [1]): Slightly Better

SCF: growth factor tested in screening
Organoid growth (Wnt11-RFP UB organoid [1]): Slightly better | Wnt11-RFP (Wnt11-RFP UB organoid [1]): Better

Verteporfin
Organoid growth (Wnt11-RFP UB organoid [1]): Dead
